Results published in article PMC10175918 (Communications Biology, 2023).
Where two headings read alike, the source gives them in different places.

Columns and labels:
Experiment in all cases: TGFα-shedding assay-based GPCR screening with chimeric Gα subunit proteins
Format in all cases: cell-based
348 GPCRs [1] = molecular target: T1, 348 GPCRs (Homo sapiens, UniProt Q92633); conditions: 10µM, Favipiravir 100μM
T1 construct: expressed in transfected cells; host or cells: HEK293A

348 GPCRs [2] = molecular target: T2, 348 GPCRs (Homo sapiens, UniProt P49682)
T2 construct: expressed in transfected cells; host or cells: HEK293A
T2 sequence (P49682 1-368): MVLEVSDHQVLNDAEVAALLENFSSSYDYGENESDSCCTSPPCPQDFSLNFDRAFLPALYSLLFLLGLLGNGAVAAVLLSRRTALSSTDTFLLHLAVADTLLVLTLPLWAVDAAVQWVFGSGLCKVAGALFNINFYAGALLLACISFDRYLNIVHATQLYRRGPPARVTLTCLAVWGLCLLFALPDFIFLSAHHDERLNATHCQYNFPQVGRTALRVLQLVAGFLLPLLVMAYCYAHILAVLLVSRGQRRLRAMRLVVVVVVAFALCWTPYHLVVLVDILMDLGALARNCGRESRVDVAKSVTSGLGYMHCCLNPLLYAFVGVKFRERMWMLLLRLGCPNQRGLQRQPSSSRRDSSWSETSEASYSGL

348 GPCRs [3] = molecular target: T3, 348 GPCRs (Homo sapiens, UniProt Q13324)
T3 construct: expressed in transfected cells; host or cells: HEK293A
T3 sequence (Q13324 1-411): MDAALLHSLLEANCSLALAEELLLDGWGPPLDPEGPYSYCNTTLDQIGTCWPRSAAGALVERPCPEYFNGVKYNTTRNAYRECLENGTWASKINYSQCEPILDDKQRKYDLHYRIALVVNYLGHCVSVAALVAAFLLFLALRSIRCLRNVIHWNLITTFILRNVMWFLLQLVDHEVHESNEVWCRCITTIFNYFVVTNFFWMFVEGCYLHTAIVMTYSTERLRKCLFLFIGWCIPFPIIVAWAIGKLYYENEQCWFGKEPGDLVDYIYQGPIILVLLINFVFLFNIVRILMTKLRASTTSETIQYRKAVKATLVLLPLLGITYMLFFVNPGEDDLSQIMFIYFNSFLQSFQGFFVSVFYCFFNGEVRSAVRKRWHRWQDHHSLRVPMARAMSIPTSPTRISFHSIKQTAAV

348 GPCRs [4] = molecular target: T4, 348 GPCRs (Homo sapiens, UniProt P25089); conditions: 10µM, Favipiravir 100μM
T4 construct: expressed in transfected cells; host or cells: HEK293A
T4 sequence (P25089 1-353): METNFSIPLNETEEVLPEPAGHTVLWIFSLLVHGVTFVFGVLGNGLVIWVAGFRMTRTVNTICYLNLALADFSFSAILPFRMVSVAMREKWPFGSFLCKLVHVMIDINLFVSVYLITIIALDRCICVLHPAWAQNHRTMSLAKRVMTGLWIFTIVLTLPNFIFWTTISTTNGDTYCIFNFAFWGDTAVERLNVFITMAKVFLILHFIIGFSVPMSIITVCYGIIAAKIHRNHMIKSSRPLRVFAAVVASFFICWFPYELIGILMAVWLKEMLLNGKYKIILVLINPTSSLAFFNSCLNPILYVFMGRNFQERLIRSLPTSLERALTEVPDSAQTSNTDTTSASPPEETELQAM

348 GPCRs [5] = molecular target: T5, 348 GPCRs (Homo sapiens, UniProt Q9Y5Y3)
T5 construct: expressed in transfected cells; host or cells: HEK293A

348 GPCRs [6] = molecular target: T6, 348 GPCRs (Homo sapiens, UniProt P35348)
T6 construct: expressed in transfected cells; host or cells: HEK293A
T6 sequence (P35348 1-466): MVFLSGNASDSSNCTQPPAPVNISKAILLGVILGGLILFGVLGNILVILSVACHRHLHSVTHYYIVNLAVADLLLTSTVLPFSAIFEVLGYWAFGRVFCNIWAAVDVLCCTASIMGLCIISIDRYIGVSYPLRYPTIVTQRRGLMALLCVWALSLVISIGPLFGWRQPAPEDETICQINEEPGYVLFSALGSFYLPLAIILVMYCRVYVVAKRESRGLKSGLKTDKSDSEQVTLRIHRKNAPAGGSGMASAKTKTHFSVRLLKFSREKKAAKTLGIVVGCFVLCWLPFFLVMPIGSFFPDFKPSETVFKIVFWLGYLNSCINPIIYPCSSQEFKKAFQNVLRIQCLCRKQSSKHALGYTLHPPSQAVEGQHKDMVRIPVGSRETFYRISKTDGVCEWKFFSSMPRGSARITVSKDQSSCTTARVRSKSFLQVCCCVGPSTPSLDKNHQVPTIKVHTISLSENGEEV

348 GPCRs [7] = molecular target: T7, 348 GPCRs (Homo sapiens, UniProt P51684); conditions: 10µM, Favipiravir 100μM
T7 construct: expressed in transfected cells; host or cells: HEK293A
T7 sequence (P51684 1-374): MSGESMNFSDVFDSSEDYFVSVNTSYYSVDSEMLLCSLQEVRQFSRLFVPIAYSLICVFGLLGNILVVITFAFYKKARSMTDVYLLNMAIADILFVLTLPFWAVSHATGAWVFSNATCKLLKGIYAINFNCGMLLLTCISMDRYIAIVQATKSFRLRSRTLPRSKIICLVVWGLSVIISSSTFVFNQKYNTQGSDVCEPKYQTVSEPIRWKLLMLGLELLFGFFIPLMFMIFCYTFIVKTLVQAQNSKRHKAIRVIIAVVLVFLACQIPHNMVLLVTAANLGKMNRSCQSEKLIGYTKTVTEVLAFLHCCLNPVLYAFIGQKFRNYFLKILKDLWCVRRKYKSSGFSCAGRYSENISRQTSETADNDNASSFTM

[8] = LPAR1 (lysophosphatidic acid receptor 1), read-out: % GPCR activation compared to TPA
[9] = GPCR CXCR3 (C-X-C motif chemokine receptor 3), read-out: % GPCR activation compared to TPA
[10] = GPCR CRHR2 (corticotropin releasing hormone receptor 2), read-out: % GPCR activation compared to TPA
[11] = FPR3 (formyl peptide receptor 3), read-out: % GPCR activation compared to TPA
[12] = GPCR GPR45 (G Protein-Coupled Receptor 45), read-out: % GPCR activation compared to TPA
[13] = GPCR α1A (adrenoceptor alpha 1A), read-out: % GPCR activation compared to TPA
[14] = CCR6 (C-C motif chemokine receptor 6), read-out: % GPCR activation compared to TPA
[15] = read-out: % GPCR activation compared to TPA, LPAR1 (lysophosphatidic acid receptor 1)
[16] = read-out: % GPCR activation compared to TPA, GPCR CXCR3 (C-X-C motif chemokine receptor 3)
[17] = read-out: % GPCR activation compared to TPA, GPCR CRHR2 (corticotropin releasing hormone receptor 2)
[18] = read-out: % GPCR activation compared to TPA, FPR3 (formyl peptide receptor 3)
[19] = read-out: % GPCR activation compared to TPA, GPCR GPR45 (G Protein-Coupled Receptor 45)
[20] = read-out: % GPCR activation compared to TPA, GPCR α1A (adrenoceptor alpha 1A)
[21] = read-out: % GPCR activation compared to TPA, CCR6 (C-C motif chemokine receptor 6)

T1 sequence (Q92633 whole entry): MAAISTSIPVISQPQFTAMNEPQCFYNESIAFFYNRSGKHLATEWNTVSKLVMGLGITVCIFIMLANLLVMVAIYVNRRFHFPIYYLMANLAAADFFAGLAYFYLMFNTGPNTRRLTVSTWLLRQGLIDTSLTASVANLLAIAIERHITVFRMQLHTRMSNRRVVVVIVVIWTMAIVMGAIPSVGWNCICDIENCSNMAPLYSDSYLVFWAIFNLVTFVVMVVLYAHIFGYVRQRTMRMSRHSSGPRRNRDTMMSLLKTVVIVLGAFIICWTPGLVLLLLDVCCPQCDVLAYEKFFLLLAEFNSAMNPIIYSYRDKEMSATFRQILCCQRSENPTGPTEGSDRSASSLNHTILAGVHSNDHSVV
T5 sequence (Q9Y5Y3 whole entry): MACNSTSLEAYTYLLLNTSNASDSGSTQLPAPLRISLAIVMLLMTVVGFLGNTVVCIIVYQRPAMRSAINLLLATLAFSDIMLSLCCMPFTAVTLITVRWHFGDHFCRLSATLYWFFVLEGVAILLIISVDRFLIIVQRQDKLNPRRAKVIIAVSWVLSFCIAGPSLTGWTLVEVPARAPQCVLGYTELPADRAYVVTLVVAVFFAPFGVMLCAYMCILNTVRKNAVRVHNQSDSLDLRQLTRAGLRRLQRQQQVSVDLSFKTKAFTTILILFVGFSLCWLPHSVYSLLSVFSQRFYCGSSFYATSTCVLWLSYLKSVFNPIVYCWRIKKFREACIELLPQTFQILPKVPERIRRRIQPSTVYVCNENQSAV

Row | activation at 10 µM (348 GPCRs [1]; [8]) | activation at 10 µM (348 GPCRs [2]; [9]) | activation at 10 µM (348 GPCRs [3]; [10]) | activation at 100 µM (348 GPCRs [4]; [11]) | activation at 10 µM (348 GPCRs [5]; [12]) | activation at 10 µM (348 GPCRs [6]; [13]) | activation at 10 µM (348 GPCRs [7]; [14]) | activation at 100 µM (348 GPCRs [2]; GPCR CXCR3 (C-X-C motif chemokine receptor 3), 100μM, read-out: % GPCR activation compared to TPA) | activation at 100 µM (348 GPCRs [3]; GPCR CRHR2 (corticotropin releasing hormone receptor 2), 100μM, read-out: % GPCR activation compared to TPA) | activation at 100 µM (348 GPCRs [5]; GPCR GPR45 (G Protein-Coupled Receptor 45), 100μM, read-out: % GPCR activation compared to TPA) | activation at 100 µM (348 GPCRs [6]; GPCR α1A (adrenoceptor alpha 1A), 100μM, read-out: % GPCR activation compared to TPA) | Compound | activation at 10 µM (348 GPCRs [1]; [15]) | activation at 10 µM (348 GPCRs [2]; [16]) | activation at 10 µM (348 GPCRs [3]; [17]) | activation at 100 µM (348 GPCRs [4]; [18]) | activation at 10 µM (348 GPCRs [5]; [19]) | activation at 10 µM (348 GPCRs [6]; [20]) | activation at 10 µM (348 GPCRs [7]; [21])
1 | 1.19% | -3.08% | 0.656% | 2.5% | -0.0256% | 0.0114% | 0.67% |  |  |  |  | N#C[C@@]1(c2ccc3c(N)ncnn23)O[C@H](CO)[C@@H](O)[C@H]1O [GS441524] |  |  |  |  |  |  | 
2 | 0.687% |  |  | 0.4% |  |  | 0.146% | -0.62% | -0.529% | -0.546% | 0.574% | NC(=O)c1nc(F)cnc1O [favipiravir, 6-fluoro-3-hydroxy-2-pyrazinecarboxamide] |  |  |  |  |  |  | 
3 | -1.42% | -2.3% | -0.005% | -1.95% | 0.592% | 0.335% | -2.53% |  |  |  |  | CC(C)C(=O)OC[C@H]1O[C@@H](n2ccc(NO)nc2=O)[C@H](O)[C@@H]1O [molnupiravir] |  |  |  |  |  |  | 
4 |  |  |  |  |  |  |  |  |  |  |  | CCC(CC)COC(=O)[C@H](C)N[P@](=O)(OC[C@H]1O[C@@](C#N)(c2ccc3c(N)ncnn23)[C@H](O)[C@@H]1O)Oc1ccccc1 [remdesivir] | 0.719% | -0.708% | 1.58% | 3.79% | 0.315% | 0.479% | 2.34%
5 |  |  |  |  |  |  |  |  |  |  |  | CC(C)OC(=O)[C@H](C)N[P@](=O)(OC[C@H]1O[C@@H](n2ccc(=O)[nH]c2=O)[C@](C)(F)[C@@H]1O)Oc1ccccc1 [sofosbuvir] | 3.41% | -2.03% | 2.1% | -0.773% | 0.955% | 0.301% | -3.43%
